Measurements taken from patent publication US20240238301A1, “COMPOSITIONS AND METHODS FOR REDUCED TOXICITY IN TRANSPLANTATION USING JANUS KINASE (JAK) INHIBITORS” (THE REGENTS OF THE UNIVERSITY OF COLORADO, A BODY CORPORATE, priority 2021, published 2024).

Legend:
[1] = manufacturer reported; cited from earlier work
[2] = system: Balb/cJ recipients and C57BL/6 donors; assay: MHC-mismatched allogeneic BMT, donor cell engraftment by FACS of peripheral blood (Balb/cJ recipients, C57BL/6 donors); assay type: in vivo, mice; settings: 4 Gy RIC TBI, 90 mg/kg oral gavage twice daily Day -5 through Day +2, 4 weeks post-BMT, n=7
Experimental: (§1) In one exemplary method, mouse models of human allogeneic bone marrow transplant events were prepared. In brief, major histocompatibility complex (MHC)-mismatched bone marrow transplants (BMTs, HCT)—which model human allogeneic BMTs—were performed in mice. Mice used in this exemplary method were the C57BL/6 mouse strain (which express the MHC marker H2K^b) and the Balb/cJ strain (which express the MHC marker H2K^d). Both mouse strains were maintained by homozygous breeding according to established vivarium practices. Mice approximately 6-10 weeks of age were used for both recipients and donors. Donors and recipients were matched in gender (male recipient mice receive cells from male donors while female recipients receive cells from female donors).
(§2) In another exemplary method, BMT was performed by isolating bone marrow cells from the bones of euthanized donor mice using a method similar to previous methods (Amend et al., J Vis Exp. 2016 Apr. 14; (110):53936). […] Viable cells (which excluded Trypan Blue) were counted using a hematocytometer. […] Stained cells were resuspended in PBS and evaluated via Fluorescent-Activated Cell Sorting (FACS) on a Cytek Aurora cytometer. FACS data was analyzed using FloJo software. […] Cells which were negative for Ter119 (RBCs) and positive for CD45 (hematopoietic cells) were further analyzed. […]

[3] = system: C57BL/6 recipients and Balb/cJ donors; assay: MHC-mismatched allogeneic BMT, donor cell engraftment by FACS of peripheral blood (C57BL/6 recipients, Balb/cJ donors); assay type: in vivo, mice; settings: 6.5 Gy RIC TBI
Experimental: as §1, §2

[4] = system: recipient and donor NK and T cells (mouse spleen cells); assay: Effect on recipient versus donor NK and T cells in spleen after BMT (FACS); assay type: in vivo, mice; settings: spleen cells after BMT (data not shown)
Experimental: In another exemplary method, BMTs were performed and assessed to determine the effects of JAK inhibitors on recipient compared to donor NK and T cells as outlined in FIG. 6. In this exemplary method, BMTs were performed in mice as described in Example 1 wherein C57BL/6 mice were the transplant donors while Balb/cJ mice served as stem cell recipients. Recipient mice were treated with Ruxolitinib and given RIC TBI followed by BMT as previously described in the examples herein. On Day +1 and Day +3 post-BMT, a portion of the recipient mice were euthanized, and their spleens were harvested. The spleen cells were prepared into a single cell suspension, subjected to RBC lysis, stained (using previously referenced markers in addition to T-cell subset markers, CD4 and CD8) and analyzed by FACS as described in the examples herein.

| SMILES | solubility in DMSO [1] | donor cell engraftment (mice engrafted) [2] | donor cell engraftment (mice engrafted) ([3]; 180 mg/kg Day -5 through Day +2, 4 weeks post-BMT, n=6) | donor cell engraftment (mice engrafted) ([3]; 270 mg/kg Day -5 through Day +2, 4 weeks post-BMT, n=3) | effect on donor T cells [4] |
| --- | --- | --- | --- | --- | --- |
| N#CC[C@H](C1CCCC1)n1cc(-c2ncnc3[nH]ccc23)cn1 [Ruxolitinib phosphate] | 200 mg/mL | – | – | – | – |
| N#CC[C@H](C1CCCC1)n1cc(-c2ncnc3[nH]ccc23)cn1 [ruxolitinib] | – | 100% | 100% | 100% | no significant effect |
